In paper PMC13575467, “Structural and functional characterisation of a reconstructed ancestral strigolactone receptor” (The Plant Journal, 2026):

Assays:
AtD14 [1] = target: T1, AtD14 (Arabidopsis thaliana, UniProt Q9SQR3); assay: differential scanning fluorimetry; assay type: binding; conditions: Tm lowered (destabilisation); ligand 0-200 μM
T1 construct: gene D14; E. coli codon-optimised, 6xHis-SUMO fusion (pE-SUMO-Amp) from E. coli Rosetta, Ni-NTA, tag kept in assays
T1 sequence (Q9SQR3 1-267): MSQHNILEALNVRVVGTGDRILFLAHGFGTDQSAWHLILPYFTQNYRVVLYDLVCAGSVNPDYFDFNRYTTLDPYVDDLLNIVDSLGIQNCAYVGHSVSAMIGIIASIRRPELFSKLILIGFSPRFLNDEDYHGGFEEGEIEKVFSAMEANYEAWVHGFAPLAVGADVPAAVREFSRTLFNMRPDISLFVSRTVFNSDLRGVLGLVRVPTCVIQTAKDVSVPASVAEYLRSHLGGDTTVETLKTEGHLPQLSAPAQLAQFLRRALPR

ancD14 (ancestral D14) [2] = target: T2, ancD14 (ancestral D14) (synthetic construct, UniProt Z9A6V6BWX9); assay: differential scanning fluorimetry; assay type: binding; conditions: Tm lowered (destabilisation); ligand 0-200 μM
T2 sequence (Z9A6V6BWX9 1-265): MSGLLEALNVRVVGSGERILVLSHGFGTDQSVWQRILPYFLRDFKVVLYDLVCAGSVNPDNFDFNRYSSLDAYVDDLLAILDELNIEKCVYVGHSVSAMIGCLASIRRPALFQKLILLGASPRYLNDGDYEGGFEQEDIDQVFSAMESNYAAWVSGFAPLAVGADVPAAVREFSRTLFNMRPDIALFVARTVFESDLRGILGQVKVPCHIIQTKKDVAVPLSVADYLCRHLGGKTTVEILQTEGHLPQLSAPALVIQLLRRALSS

AtD14 [3] = target: T1, AtD14; assay: competition of dYLG hydrolysis; assay type: biochemical; conditions: 5 μM dYLG, 0-50 μM competitor, 100 ng protein
ancD14 (ancestral D14) [4] = target: T2, ancD14 (ancestral D14); assay: differential scanning fluorimetry; assay type: binding; conditions: Tm lowered (destabilisation); ligand 0-200 μM; remark: listed apart in the source
ancD14 (ancestral D14) [5] = target: T2, ancD14 (ancestral D14); assay: competition of dYLG hydrolysis; assay type: biochemical; conditions: 5 μM dYLG, 0-50 μM competitor, 100 ng protein
AtD14 [6] = target: T1, AtD14; assay: differential scanning fluorimetry; assay type: binding; conditions: Tm lowered (destabilisation); ligand 0-200 μM; remark: listed apart in the source

Row | dTm (decrease in melting temperature) (AtD14 [1]) | dTm (decrease in melting temperature) (ancD14 (ancestral D14) [2]) | Compound | IC50 (AtD14 [3]) | dTm (ancD14 (ancestral D14) [4]) | IC50 (ancD14 (ancestral D14) [5]) | dTm (AtD14 [6])
1 | 6.1 °C | 6.6 °C | CC1=C[C@H](O/C=C2/C(=O)O[C@@H]3c4ccccc4C[C@H]23)OC1=O [GR24^5DS] | GR24^5DS was a very effective competitor for AtD14 |  |  | 
2 |  |  | CC1=C[C@@H](O/C=C2/C(=O)O[C@H]3c4ccccc4C[C@@H]23)OC1=O [GR24^ent-5DS] | AtD14 activity was inhibited by all four enantiomers | albeit with a comparatively muted response to GR24^ ent‐5DS | GR24^ ent‐5DS also competed well with ancD14 | AtD14 was thermally destabilised by both GR24^5DS and GR24^ ent‐5DS
3 |  |  | O=C1C=C[C@@H](O/C=C2/C(=O)O[C@H]3c4ccccc4C[C@@H]23)O1 [dGR24^ent-5DS] | AtD14 activity was inhibited by all four enantiomers |  |  | 
